In patent US10828316B2, “Method of treating bacterial infections” (priority 2016, dated 2020):
Values after ≈ are worked out from the molar mass of the structure shown. Like-named read-outs stand apart in the source and are kept apart here.

Columns and labels:
S. sonnei APV00908 = test: MIC; format: cell-based; details: for MIC: Shigella sonnei
S. flexneri APV00907 = test: MIC; format: cell-based; details: for MIC: Shigella flexneri
K. pneumoniae EN0262 = details: commercial antibiotics, data provided by IMBIM, BMC, Uppsala University; cited from earlier work
S. flexneri APV00906 = test: MIC; format: cell-based; details: for MIC: Shigella flexneri
P. aeruginosa EN0004 = test: MIC; format: cell-based; details: in didanosine+trimethoprim+uridine combination
K. pneumoniae EN011 = test: MIC; format: cell-based, Klebsiella pneumoniae; details: Klebsiella pneumoniae
E. coli EN0001 = test: MIC; format: cell-based; details: in didanosine+trimethoprim+uridine combination
E. coli EN001 = test: MIC; format: cell-based, Escherichia coli
E. coli strain no 2 = test: MIC; details: Escherichia coli, NO2, read-out: MIC Didanosine, E. coli strain 2
A. baumannii EN0007 = test: MIC; format: cell-based, A. baumanii; details: in didanosine+trimethoprim+uridine combination
P. aeruginosa EN015 = test: MIC; format: cell-based, Pseudomonas aeruginosa; details: Pseudomonas aeruginosa
E. coli EN013 = test: MIC; format: cell-based, Escherichia coli; details: Escherichia coli
K. pneumoniae EN0006 = test: MIC; format: cell-based; details: in didanosine+trimethoprim+uridine combination
S. aureus EN008 = test: MIC; format: cell-based, Staphylococcus aureus; details: Staphylococcus aureus, Combination 2, read-out: MIC, thymidine concentration
P. aeruginosa EN0422 = test: MIC; format: cell-based, Pseudomonas aeruginosa; details: Pseudomonas aeruginosa, Combination 2, read-out: MIC, thymidine concentration
P. aeruginosa EN014 = test: MIC; format: cell-based, Pseudomonas aeruginosa; details: Pseudomonas aeruginosa, Combination 2, read-out: MIC, thymidine concentration
Citrobacter sp. EN0465 = test: MIC; format: cell-based; details: Combination 2, read-out: MIC, thymidine concentration
P. aeruginosa EN0460 = test: MIC; format: cell-based, Pseudomonas aeruginosa; details: Pseudomonas aeruginosa, Combination 2, read-out: MIC, thymidine concentration
P. aeruginosa EN0459 = test: MIC; format: cell-based, Pseudomonas aeruginosa; details: Pseudomonas aeruginosa, Combination 2, read-out: MIC, thymidine concentration
P. mirabilis EN0457 = test: MIC; format: cell-based, Proteus mirabilis; details: Proteus mirabilis, Combination 2, read-out: MIC, thymidine concentration
E. coli EN002 = test: MIC; format: cell-based, Escherichia coli; details: Escherichia coli, Combination 2, read-out: MIC, thymidine concentration
M. luteus EN0455 = test: MIC; format: cell-based, Micrococcus luteus; details: Micrococcus luteus, Combination 2, read-out: MIC, thymidine concentration
P. aeruginosa EN004 = test: MIC; format: cell-based, Pseudomonas aeruginosa; details: Pseudomonas aeruginosa, Combination 2, read-out: MIC, thymidine concentration
[1] = test system: A. pittii or A. nosocomialis EN0180; test: MIC; format: cell-based, Acinetobacter pittii or nosocomialis; details: Combination 2, read-out: MIC, thymidine concentration
A. baumannii EN017 = test: MIC; format: cell-based, Acinetobacter baumannii; details: Acinetobacter baumannii; A. baumannii EN017; Combination 2; read-out: MIC, thymidine concentration
K. pneumoniae EN0463 = test: MIC; format: cell-based, Klebsiella pneumoniae; details: Klebsiella pneumoniae, Combination 2, read-out: MIC, thymidine concentration
S. marescens EN0454 = test: MIC; format: cell-based, Serratia marescens; details: Serratia, Combination 2, read-out: MIC, thymidine concentration
A. baumannii EN016 = test: MIC; format: cell-based, Acinetobacter baumannii; details: Acinetobacter baumannii, Combination 2, read-out: MIC, thymidine concentration
A. baumannii EN007 = test: MIC; format: cell-based, Acinetobacter baumannii; details: Acinetobacter baumannii, Combination 2, read-out: MIC, thymidine concentration
K. pneumoniae EN010 = test: MIC; format: cell-based, Klebsiella pneumoniae; details: Klebsiella pneumoniae, Combination 2, read-out: MIC, thymidine concentration
K. oxytoca EN0392 = test: MIC; format: cell-based, Klebsiella oxytoca; details: Klebsiella oxytoca, Combination 2, read-out: MIC, thymidine concentration
K. pneumoniae EN006 = test: MIC; format: cell-based, Klebsiella pneumoniae; details: Klebsiella pneumoniae, Combination 2, read-out: MIC, thymidine concentration
S. typhimurium EN0466 = test: MIC; format: cell-based, Salmonella typhimurium; details: Salmonella enterica, Combination 2, read-out: MIC, thymidine concentration
E. coli EN012 = test: MIC; format: cell-based, Escherichia coli; details: Escherichia coli, Combination 2, read-out: MIC, thymidine concentration
E. coli B EN0458 = test: MIC; format: cell-based, Escherichia coli B; details: Escherichia coli, BEN0458, Combination 2, read-out: MIC, thymidine concentration
E. coli EN003 = test: MIC; format: cell-based, Escherichia coli; details: Escherichia coli, Combination 2, read-out: MIC, thymidine concentration
P. mirabilis ST19 EN0445 = test: MIC; format: cell-based, Proteus mirabilis; details: Proteus mirabilis, ST19EN0445, Combination 2, read-out: MIC, thymidine concentration
E. aerogenes EN0461 = test: MIC; format: cell-based, Enterobacter aerogenes; details: Klebsiella aerogenes, Combination 2, read-out: MIC, thymidine concentration
P. aeruginosa EN005 = test: MIC; format: cell-based, Pseudomonas aeruginosa; details: Pseudomonas aeruginosa, Combination 2, read-out: MIC, thymidine concentration
S. epidermidis EN0456 = test: MIC; format: cell-based, Staphylococcus epidermidis; details: Staphylococcus epidermidis, Combination 2, read-out: MIC, thymidine concentration
[2] = S. sonnei APV00908, read-out: Antibiogram MIC
[3] = S. flexneri APV00907, read-out: Antibiogram MIC
[4] = S. flexneri APV00906, read-out: Antibiogram MIC

## NCC[C@H](O)C(=O)N[C@@H]1C[C@H](N)[C@@H](O[C@H]2O[C@H](CN)[C@@H](O)[C@H](O)[C@H]2O)[C@H](O)[C@H]1O[C@H]1O[C@H](CO)[C@@H](O)[C@H](N)[C@H]1O [amikacin]
S. sonnei APV00908; S. sonnei APV00908
  Antibiogram category (S, I, R, R*): R*
S. sonnei APV00908; [2]
  MIC: 4 µg/mL (≈ 6.83 µM)
S. flexneri APV00907; S. flexneri APV00907
  Antibiogram category (S, I, R, R*): R*
S. flexneri APV00907; [3]
  MIC: 4 µg/mL (≈ 6.83 µM)
K. pneumoniae EN0262
  MIC: 8 µg/mL (≈ 13.7 µM)
S. flexneri APV00906; S. flexneri APV00906
  Antibiogram category (S, I, R, R*): R*
S. flexneri APV00906; [4]
  MIC: 16 µg/mL (≈ 27.3 µM)

## O=c1[nH]cnc2c1ncn2[C@H]1CC[C@@H](CO)O1 [Didanosine, didanosine]
P. aeruginosa EN0004
  MIC: >4 µg/mL
K. pneumoniae EN011; EN011, K. pneumoniae EN011, in didanosine+trimethoprim+uridine combination
  MIC: 0.125 µg/mL
E. coli EN0001
  MIC: 0.25 µg/mL
E. coli EN001; in didanosine+trimethoprim+uridine combination
  MIC: 0.125 µg/mL
E. coli strain no 2; trimethoprim 0, uridine 0 μg/ml
  MIC: > 30 µg/mL
E. coli strain no 2; trimethoprim 0, uridine 10 μg/ml
  MIC: > 30 µg/mL
E. coli strain no 2; trimethoprim 0, uridine 100 μg/ml
  MIC: > 30 µg/mL
E. coli strain no 2; trimethoprim 1 μg/ml, uridine 0 μg/ml
  MIC: > 2.5 µg/mL
E. coli strain no 2; trimethoprim 1 μg/ml, uridine 10 μg/ml
  MIC: > 2.5 µg/mL
E. coli strain no 2; trimethoprim 2 μg/ml, uridine 0 μg/ml
  MIC: > 2.5 µg/mL
E. coli strain no 2; trimethoprim 2 μg/ml, uridine 10 μg/ml
  MIC: > 2.5 µg/mL
A. baumannii EN0007
  MIC: >4 µg/mL
P. aeruginosa EN015; EN015, P. aeruginosa EN015, in didanosine+trimethoprim+uridine combination
  MIC: 1 µg/mL
E. coli EN013; EN013, E. coli EN013, in didanosine+trimethoprim+uridine combination
  MIC: 0.016 µg/mL
K. pneumoniae EN0006
  MIC: 0.5 µg/mL

## Cc1cn([C@H]2C[C@H](O)[C@@H](CO)O2)c(=O)[nH]c1=O [Thymidine, thymidine]
S. aureus EN008
  MIC: > 120 µM
P. aeruginosa EN0422
  MIC: > 120 µM
P. aeruginosa EN014
  MIC: > 120 µM
Citrobacter sp. EN0465
  MIC: > 120 µM
K. pneumoniae EN011; K. pneumoniae EN011, Combination 2, read-out: MIC, thymidine concentration
  MIC: 8 µM
P. aeruginosa EN0460
  MIC: > 120 µM
P. aeruginosa EN0459
  MIC: > 120 µM
P. mirabilis EN0457
  MIC: > 120 µM
E. coli EN002
  MIC: 4 µM
M. luteus EN0455
  MIC: > 120 µM
P. aeruginosa EN004
  MIC: > 120 µM
[1]
  MIC: > 120 µM
A. baumannii EN017
  MIC: 30 µM
K. pneumoniae EN0463
  MIC: 8 µM
S. marescens EN0454
  MIC: > 120 µM
E. coli EN001; Escherichia coli, Combination 2, read-out: MIC, thymidine concentration
  MIC: 30 µM
A. baumannii EN016
  MIC: > 120 µM
P. aeruginosa EN015; P. aeruginosa EN015, Combination 2, read-out: MIC, thymidine concentration
  MIC: 60 µM
E. coli EN013; E. coli EN013, Combination 2, read-out: MIC, thymidine concentration
  MIC: < 0.2 µM
A. baumannii EN007
  MIC: > 120 µM
K. pneumoniae EN010
  MIC: 30 µM
K. oxytoca EN0392
  MIC: 15 µM
K. pneumoniae EN006
  MIC: 15 µM
S. typhimurium EN0466
  MIC: 15 µM
E. coli EN012
  MIC: < 0.2 µM
E. coli B EN0458
  MIC: < 0.2 µM
E. coli EN003
  MIC: < 0.2 µM
P. mirabilis ST19 EN0445
  MIC: > 120 µM
E. aerogenes EN0461
  MIC: 60 µM
P. aeruginosa EN005
  MIC: 30 µM
S. epidermidis EN0456
  MIC: 60 µM

## CO/N=C(\C(=O)N[C@@H]1C(=O)N2C(C(=O)O)=C(COC(C)=O)CS[C@H]12)c1csc(N)n1 [cefotaxime]
S. sonnei APV00908; APV00908, read-out: Antibiogram MIC
  MIC: ≤ 1 µg/mL
S. flexneri APV00907; APV00907, read-out: Antibiogram MIC
  MIC: ≤ 1 µg/mL
K. pneumoniae EN0262
  MIC: >32 µg/mL
S. flexneri APV00906; APV00906, read-out: Antibiogram MIC
  MIC: ≥ 64 µg/mL

## CO/N=C(\C(=O)N[C@@H]1C(=O)N2C(C(=O)[O-])=C(C[N+]3(C)CCCC3)CS[C@H]12)c1csc(N)n1 [cefepime]
S. sonnei APV00908; [2]
  MIC: ≤ 1 µg/mL
S. flexneri APV00907; [3]
  MIC: ≤ 1 µg/mL
K. pneumoniae EN0262
  MIC: >16 µg/mL
S. flexneri APV00906; [4]
  MIC: 2 µg/mL (≈ 4.16 µM)

## C[C@@H](O)[C@H]1C(=O)N2C(C(=O)O)=C(S[C@@H]3CN[C@H](C(=O)N(C)C)C3)[C@H](C)[C@H]12 [meropenem]
S. sonnei APV00908; [2]
  MIC: ≤ 0.25 µg/mL
S. flexneri APV00907; [3]
  MIC: ≤ 0.25 µg/mL
K. pneumoniae EN0262
  MIC: >8 µg/mL
S. flexneri APV00906; [4]
  MIC: ≤ 0.25 µg/mL

## gentamicin
S. sonnei APV00908; S. sonnei APV00908
  Antibiogram MIC: ≤ 1 µg/mL
  Antibiogram category (S, I, R, R*): R*
S. flexneri APV00907; S. flexneri APV00907
  Antibiogram MIC: ≤ 1 µg/mL
  Antibiogram category (S, I, R, R*): R*
K. pneumoniae EN0262
  MIC: 1 µg/mL
S. flexneri APV00906; S. flexneri APV00906
  Antibiogram MIC: 4 µg/mL
  Antibiogram category (S, I, R, R*): R*

## C[C@H]1[C@H](NC(=O)/C(=N\OC(C)(C)C(=O)O)c2csc(N)n2)C(=O)N1S(=O)(=O)O [aztreonam]
K. pneumoniae EN0262
  MIC: >16 µg/mL

## colistin
K. pneumoniae EN0262
  MIC: 1 µg/mL
